In brackets after ≈: the same amount, converted by molar mass. Several values for one entry are separate records, joined by “and”; a condition that tells them apart may be missing. Identical values can stand only once.
Columns and labels:
[1] = test system: Streptococcus Group D 9960; test: agar-dilution MIC; format: cell-based; conditions: two values = two experiments, 2 median of five, 19 median of three
Description: (§1) In Table VII activity is measured by the minimal inhibitory concentration (MIC), i.e. the lowest concentration of compound at which growth of the microorganism is inhibited by the test compound.

[2] = test system: Streptococcus pneumoniae Park I; format: cell-based; conditions: two values = two experiments, 2 median of five, 19 median of three
Description: as §1

[3] = test system: Staphylococcus aureus X1.1; test: agar-dilution MIC; format: cell-based; conditions: two values = two experiments, 2 median of five, 19 median of three experiments
Description: as §1

[4] = test system: Staphylococcus aureus V41; test: agar-dilution MIC; format: cell-based; conditions: Staphylococcus aureus V41, penicillin-resistant strain; two values = two experiments; 2 median of five, 19 median of three
Description: as §1

[5] = test system: Streptococcus Group D X66; test: agar-dilution MIC; format: cell-based; conditions: two values = two experiments, 2 median of five, 19 median of three
Description: as §1

toxicity test, LD50 = conditions: mouse, in vivo, iv; administered intravenously; read-out: LD50 (mg/kg) in Mice
[6] = test system: Staphylococcus epidermidis EPI1; format: cell-based; conditions: two values = two experiments, 2 median of five, 19 median of three
[7] = test system: Staphylococcus aureus X400; test: agar-dilution MIC; format: cell-based; conditions: Staphylococcus aureus X400, methicillin-resistant strain; two values = two experiments; 2 median of five, 19 median of three
Description: as §1

[8] = test system: Streptococcus pyogenes C203; test: agar-dilution MIC; format: cell-based; conditions: two values = two experiments, 2 median of five, 19 median of three
Streptococcus pyogenes = test: in vivo experimental bacterial infection, ED50; conditions: mice; for ED50 Values Streptococcus pyogenes Oral: two doses orally; for ED50 Values Streptococcus pyogenes Subcutaneous: two doses subcutaneously, two values = two experiments
[9] = test system: Staphylococcus epidermidis EPI2; test: agar-dilution MIC; format: cell-based; conditions: two values = two experiments, 2 median of five, 19 median of three
Staphylococcus aureus = test: in vivo experimental bacterial infection, ED50; conditions: mice, two doses subcutaneously; two values = two experiments

With `CCCCCCCCCCCC(=O)NCCCCC(=O)N[C@@H](Cc1c[nH]c2ccccc12)C(=O)N[C@H](CC(N)=O)C(=O)N[C@@H](CC(=O)O)C(=O)N[C@@H]1C(=O)NCC(=O)N[C@@H](CCCN)C(=O)N[C@@H](CC(=O)O)C(=O)N[C@H](C)C(=O)N[C@@H](CC(=O)O)C(=O)NCC(=O)N[C@H](CO)C(=O)N[C@@H]([C@H](C)CC(=O)O)C(=O)N[C@@H](CC(=O)c2ccccc2N)C(=O)O[C@@H]1C` [Compound 2] the MIC [1] was 8 µg/mL (≈ 4.58 µM), the MIC [2] was 4 µg/mL (≈ 2.29 µM) and the MIC [3] was 4 µg/mL (≈ 2.29 µM). For the same compound, the MIC [4] was 4 µg/mL (≈ 2.29 µM), the MIC [5] was 32 µg/mL (≈ 18.3 µM) and the LD50 (toxicity test, LD50) was > 600 mg/kg. It also gave an MIC [6] of 4 µg/mL (≈ 2.29 µM), an MIC [7] of 4 µg/mL (≈ 2.29 µM) and an MIC [8] of 1 µg/mL (≈ 0.572 µM). For the same compound, the “ED50 Values Streptococcus pyogenes Oral” value (Streptococcus pyogenes) was 117 mg/kg × 2, the MIC [9] was 2 µg/mL (≈ 1.14 µM) and the “ED50 Values Staphylococcus aureus Subcutaneous” value (Staphylococcus aureus) was 0.65 mg/kg × 2 and 0.93 mg/kg × 2.

For `CCCCCCCCCCCC(=O)Nc1cccc(C(=O)N[C@@H](Cc2c[nH]c3ccccc23)C(=O)N[C@H](CC(N)=O)C(=O)N[C@@H](CC(=O)O)C(=O)N[C@@H]2C(=O)NCC(=O)N[C@@H](CCCN)C(=O)N[C@@H](CC(=O)O)C(=O)N[C@H](C)C(=O)N[C@@H](CC(=O)O)C(=O)NCC(=O)N[C@H](CO)C(=O)N[C@@H]([C@H](C)CC(=O)O)C(=O)N[C@@H](CC(=O)c3ccccc3N)C(=O)O[C@@H]2C)c1` [Compound 5], the MIC [1] was 1 µg/mL (≈ 0.566 µM), the MIC [2] was 0.25 µg/mL (≈ 0.141 µM) and the MIC [3] was 0.5 µg/mL (≈ 0.283 µM). The MIC [4] was 0.5 µg/mL (≈ 0.283 µM), the MIC [5] was 4 µg/mL (≈ 2.26 µM) and the LD50 (toxicity test, LD50) was 277 mg/kg. For the same compound, the MIC [6] was 2 µg/mL (≈ 1.13 µM), the MIC [7] was 1 µg/mL (≈ 0.566 µM) and the MIC [8] was 0.25 µg/mL (≈ 0.141 µM). For the same compound, the “ED50 Values Streptococcus pyogenes Oral” value (Streptococcus pyogenes) was > 200 mg/kg × 2, the “ED50 Values Streptococcus pyogenes Subcutaneous” value (Streptococcus pyogenes) was > 0.25 mg/kg × 2 and 0.46 mg/kg × 2 and the MIC [9] was 1 µg/mL (≈ 0.566 µM). The “ED50 Values Staphylococcus aureus Subcutaneous” value (Staphylococcus aureus) was 1.67 mg/kg × 2.

Compound `CCCCCCCCCCCC(=O)N[C@@H](Cc1c[nH]c2ccccc12)C(=O)N[C@@H](Cc1c[nH]c2ccccc12)C(=O)N[C@H](CC(N)=O)C(=O)N[C@@H](CC(=O)O)C(=O)N[C@@H]1C(=O)NCC(=O)N[C@@H](CCCN)C(=O)N[C@@H](CC(=O)O)C(=O)N[C@H](C)C(=O)N[C@@H](CC(=O)O)C(=O)NCC(=O)N[C@H](CO)C(=O)N[C@@H]([C@H](C)CC(=O)O)C(=O)N[C@@H](CC(=O)c2ccccc2N)C(=O)O[C@@H]1C` [Compound 24] has an MIC [1] of 4 µg/mL (≈ 2.18 µM), an MIC [2] of 1 µg/mL (≈ 0.545 µM) and an MIC [3] of 1 µg/mL (≈ 0.545 µM). The MIC [4] was 2 µg/mL (≈ 1.09 µM), the MIC [5] was 16 µg/mL (≈ 8.72 µM) and the LD50 (toxicity test, LD50) was 450 mg/kg. It also gave an MIC [6] of 4 µg/mL (≈ 2.18 µM), an MIC [7] of 4 µg/mL (≈ 2.18 µM) and an MIC [8] of 2 µg/mL (≈ 1.09 µM). For the same compound, the “ED50 Values Streptococcus pyogenes Oral” value (Streptococcus pyogenes) was > 200 mg/kg × 2, the MIC [9] was 4 µg/mL (≈ 2.18 µM) and the “ED50 Values Staphylococcus aureus Subcutaneous” value (Staphylococcus aureus) was 2.3 mg/kg × 2.

Work on `CCCCCCCCCC(=O)N[C@@H](Cc1ccccc1)C(=O)N[C@@H](Cc1c[nH]c2ccccc12)C(=O)N[C@H](CC(N)=O)C(=O)N[C@@H](CC(=O)O)C(=O)N[C@@H]1C(=O)NCC(=O)N[C@@H](CCCN)C(=O)N[C@@H](CC(=O)O)C(=O)N[C@H](C)C(=O)N[C@@H](CC(=O)O)C(=O)NCC(=O)N[C@H](CO)C(=O)N[C@@H]([C@H](C)CC(=O)O)C(=O)N[C@@H](CC(=O)c2ccccc2N)C(=O)O[C@@H]1C` [Compound 19, NTrp-[N-(n-Decanoyl)-L-phenylalanyl]-A-21978C Nucleus] yielded an MIC [1] of 2 µg/mL (≈ 1.13 µM), an MIC [2] of 0.75 µg/mL (≈ 0.424 µM) and an MIC [3] of 0.5 µg/mL (≈ 0.283 µM). For the same compound, the MIC [4] was 0.5 µg/mL (≈ 0.283 µM), the MIC [5] was 8 µg/mL (≈ 4.53 µM) and the LD50 (toxicity test, LD50) was 600 mg/kg. The MIC [6] was 1 µg/mL (≈ 0.566 µM), the MIC [7] was 1 µg/mL (≈ 0.566 µM) and the MIC [8] was 0.25 µg/mL (≈ 0.141 µM). For the same compound, the “ED50 Values Streptococcus pyogenes Oral” value (Streptococcus pyogenes) was > 200 mg/kg × 2, the “ED50 Values Streptococcus pyogenes Subcutaneous” value (Streptococcus pyogenes) was 0.39 mg/kg × 2 and the MIC [9] was 0.5 µg/mL (≈ 0.283 µM). The “ED50 Values Staphylococcus aureus Subcutaneous” value (Staphylococcus aureus) was 0.7 mg/kg × 2 and 0.98 mg/kg × 2.

Work on `CCCCCCC(=O)NCCCCCCCCCCC(=O)N[C@@H](Cc1c[nH]c2ccccc12)C(=O)N[C@H](CC(N)=O)C(=O)N[C@@H](CC(=O)O)C(=O)N[C@@H]1C(=O)NCC(=O)N[C@@H](CCCN)C(=O)N[C@@H](CC(=O)O)C(=O)N[C@H](C)C(=O)N[C@@H](CC(=O)O)C(=O)NCC(=O)N[C@H](CO)C(=O)N[C@@H]([C@H](C)CC(=O)O)C(=O)N[C@@H](CC(=O)c2ccccc2N)C(=O)O[C@@H]1C` [Compound 14] yielded an MIC [1] of 64 µg/mL (≈ 36.3 µM), an MIC [2] of 8 µg/mL (≈ 4.54 µM) and an MIC [3] of 4 µg/mL (≈ 2.27 µM). For the same compound, the MIC [4] was 4 µg/mL (≈ 2.27 µM), the MIC [5] was > 128 µg/mL and the LD50 (toxicity test, LD50) was > 600 mg/kg. For the same compound, the MIC [6] was 8 µg/mL (≈ 4.54 µM), the MIC [7] was 8 µg/mL (≈ 4.54 µM) and the MIC [8] was 2 µg/mL (≈ 1.14 µM). The “ED50 Values Streptococcus pyogenes Oral” value (Streptococcus pyogenes) was > 200 mg/kg × 2, the “ED50 Values Streptococcus pyogenes Subcutaneous” value (Streptococcus pyogenes) was > 9 mg/kg × 2 and the MIC [9] was 8 µg/mL (≈ 4.54 µM). For the same compound, the “ED50 Values Staphylococcus aureus Subcutaneous” value (Staphylococcus aureus) was > 18 mg/kg × 2.

Work on `CCCCCCCCCCCC(=O)N[C@@H](Cc1ccccc1)C(=O)N[C@@H](Cc1c[nH]c2ccccc12)C(=O)N[C@H](CC(N)=O)C(=O)N[C@@H](CC(=O)O)C(=O)N[C@@H]1C(=O)NCC(=O)N[C@@H](CCCN)C(=O)N[C@@H](CC(=O)O)C(=O)N[C@H](C)C(=O)N[C@@H](CC(=O)O)C(=O)NCC(=O)N[C@H](CO)C(=O)N[C@@H]([C@H](C)CC(=O)O)C(=O)N[C@@H](CC(=O)c2ccccc2N)C(=O)O[C@@H]1C` [Compound 8] yielded an MIC [1] of 0.25 µg/mL (≈ 0.139 µM), an MIC [2] of 0.125 µg/mL (≈ 0.0696 µM) and an MIC [3] of 0.25 µg/mL (≈ 0.139 µM). It also gave an MIC [4] of 0.25 µg/mL (≈ 0.139 µM), an MIC [5] of 1 µg/mL (≈ 0.557 µM) and an LD50 (toxicity test, LD50) of 250 mg/kg. The MIC [6] was 1 µg/mL (≈ 0.557 µM), the MIC [7] was 0.5 µg/mL (≈ 0.278 µM) and the MIC [8] was 0.25 µg/mL (≈ 0.139 µM). For the same compound, the “ED50 Values Streptococcus pyogenes Oral” value (Streptococcus pyogenes) was 150 mg/kg × 2, the “ED50 Values Streptococcus pyogenes Subcutaneous” value (Streptococcus pyogenes) was 0.32 mg/kg × 2 and the MIC [9] was 1 µg/mL (≈ 0.557 µM). For the same compound, the “ED50 Values Staphylococcus aureus Subcutaneous” value (Staphylococcus aureus) was 2.35 mg/kg × 2.

`CCCCCCCCCCCC(=O)Nc1cc(Cl)cc(C(=O)N[C@@H](Cc2c[nH]c3ccccc23)C(=O)N[C@H](CC(N)=O)C(=O)N[C@@H](CC(=O)O)C(=O)N[C@@H]2C(=O)NCC(=O)N[C@@H](CCCN)C(=O)N[C@@H](CC(=O)O)C(=O)N[C@H](C)C(=O)N[C@@H](CC(=O)O)C(=O)NCC(=O)N[C@H](CO)C(=O)N[C@@H]([C@H](C)CC(=O)O)C(=O)N[C@@H](CC(=O)c3ccccc3N)C(=O)O[C@@H]2C)c1Cl` [Compound 7] gave an MIC [1] of 2 µg/mL (≈ 1.09 µM), an MIC [2] of 0.125 µg/mL (≈ 0.0681 µM) and an MIC [3] of 0.5 µg/mL (≈ 0.272 µM). It also gave an MIC [4] of 1 µg/mL (≈ 0.544 µM), an MIC [5] of 2 µg/mL (≈ 1.09 µM) and an LD50 (toxicity test, LD50) of 200 mg/kg. It also gave an MIC [6] of 2 µg/mL (≈ 1.09 µM), an MIC [7] of 2 µg/mL (≈ 1.09 µM) and an MIC [8] of 1 µg/mL (≈ 0.544 µM). For the same compound, the “ED50 Values Streptococcus pyogenes Oral” value (Streptococcus pyogenes) was > 200 mg/kg × 2, the “ED50 Values Streptococcus pyogenes Subcutaneous” value (Streptococcus pyogenes) was 0.23 mg/kg × 2 and the MIC [9] was 2 µg/mL (≈ 1.09 µM). For the same compound, the “ED50 Values Staphylococcus aureus Subcutaneous” value (Staphylococcus aureus) was 19 mg/kg × 2.
